Our source for the IC50 values is patent US6436960B1, “Farnesyl transferase inhibitors having a piperidine structure and process for preparation thereof” (LG Chemical Ltd., priority 1998, dated 2002).

SMILES strings stand for the structures. pIC50: −log10 of the molar value.

Experiment [1] concerns the target T1, Ras farnesyl transferase (Homo sapiens, UniProt P49354+P49356).
T1 construct: made in house
Briefly: in vitro inhibitory activity for Ras farnesyl transferase, H-Ras substrate. It counts as biochemical. The procedure:
In the present experiment, Ras farnesyl transferase produced by genetic recombination techniques according to the improved Pompliano's method (Pompliano et al., Biochemistry, 1992, 31, 3800) was used, and Ras substrate(Ras-CVLS) protein described in Korean Patent Appln. No. 97-14409 was used after it has been purified according to the known method(see, Chung et al., Biochimica et Biophysica Acta, 1992, 278, 1129).
(§1) The enzyme reaction was performed in 50 μl of 50 mM Soduam HEPES buffer solution containing 25 mM of potassium chloride, 25 mM of magnesium chloride, 10 mM of DTT and 50 μM of zinc chloride. 1.5 μM of Ras substrate protein, 0.15 μM of tritium-farnesylpyrophosphate and 4.5 nM of farnesyl transferase were used.
(§2) More specifically, in the initial step, farnesyl transferase was added to the above buffer solution, reaction was maintained for 30 minutes at 37° C. and then the reaction was stopped by adding 1 ml of ethanol solution containing 1M HCl. The formed precipitates were adsorbed to GF/B filter using Hopper harvestor(Hopper #FH 225V) for filter-binding, washed with ethanol, and then radioactivity of the dried filter was measured using LKB β counter. Enzyme titer was measured in the unsaturated state of substrate where the concentrations of Ras substrate protein and farnesyl transferase have quantitative relationship. The compound according to the present invention dissolved in dimethyl sulfoxide(DMSO) was added to the reaction solution in an amount of less than 5% of the total reaction solution, and then the enzyme inhibitory activity thereof was measured. The enzyme inhibitory activity was represented by percentage of the amount of farnesyl incorporated into the Ras substrate protein in the presence of the test compound to that in the absence of the test compound. IC50 of the test compound was defined as the concentration at which 50% of the enzyme activity was inhibited.

The target of experiment [2] is T1, Ras farnesyl transferase. In words: in vitro inhibitory activity for Ras farnesyl transferase, K-Ras substrate. It counts as biochemical. The procedure:
In the present experiment, Ras farnesyl transferase produced by genetic recombination techniques according to the improved Pompliano's method (Pompliano et al., Biochemistry, 1992, 31, 3800) was used, […] Appln. No. 97-14409 was used after it has been purified according to the known method(see, Chung et al., Biochimica et Biophysica Acta, 1992, 278, 1129).
as §1, §2

Experiment [3] has as its target T2, Ras farnesyl transferase (Rattus norvegicus, UniProt Q02293+Q04631).
T2 construct: endogenous in cells; host or cells: Rat2 fibroblasts transformed with C-Harvey-Ras, or with H-Ras carrying the K-Ras C-terminal polybasic lysine domain
Briefly: in vivo (cellular) Ras farnesyl transferase inhibitory activity, Rat2 cells expressing C-Harvey-Ras. It counts as cell-based. The method, then:
(§3) In the present experiment, Rat2 cell line which expresses C-Harvey-Ras protein having transforming activity and Rat2 cell line(Korean patent application No. 97-14409) which is transformed with fused protein of H-Ras substituted with polybasic lysine domain at C-terminus of K-Ras were used. The experiment was performed by the modified Declue's method(Declue. J. E. et al., Cancer Research, 1991, 51, 712). Hereinafter, the experimental method will be described in more detail.
(§4) 3×10^5 cells of transformed Rat2 fibroblast cell line were sprayed on 60 mm cell cultivation dish and cultivated for 48 hours in a cell incubator at 37° C. and after 50% or more of density was reached, it was treated with the test compounds. The compound according to the present invention dissolved in dimethylsulfoxide(DMSO) was used. 1% concentration of dimethylsulfoxide was used in both control and test groups. After 4 hours from the treatment with the compound, methionine labeled with 150 μCi of radioactive isotope [^35S] per 1 ml of medium was added and after cultivating for 20 hours, the cells were washed with physiological saline water. The cells were lysed using 1 ml of cold cell lysis buffer solution(50 mM of Sodium HEPES buffer solution containing 5 mM of magnesium chloride, 1 mM of DTT, 1% NP 40, 1 mM of EDTA, 1 mM of PMSF, 2 μM of leupeptin, 2 μM of pepstatin A and 2 μM of antipain) and the supernatant wherein the cells were lysed was obtained by high-velocity centrifugation of 12,000 g×5 minutes. The amount of radioisotope in the supernatant was measured and standardized to obtain a quantitative result in immunoprecipitation reaction and then, Y13-259, a monoclonal antiboby specifically binding to Ras protein(Furth, M. E. et al., J. Virol, 1982, 43, 294) was added and reacted for 15 hours at 4° C. Protein A(combined with goat anti-murine imunoglobulin antibody)-agarose suspension was added to the solution and reacted for 1 hour at 4° C. and then, to remove the unspecific binding product, immunoprecipitates were washed with a buffer solution (50 mM Tris chloride buffer solution containing 50 mM of sodium chloride, 0.5% of sodium dioxycholate, 0.5% of NP 40 and 0.1% of SDS). The precipitates were added to a buffer solution for electrophoresis and boiled and then, electrophoresis was performed using 13.5% of SDS polyacrylamide gel. After electrophoresis, the gel was fixed and dried. Then, the gel was exposed to X-ray film, developed and printed. From the result of the experiment, intensities of band of protein combined with or without farnesyl of Ras protein were measured, and the concentration of the test compound inhibiting 50% of farnesyl binding was defined as CIC50, an in vivo Ras farnesyl transferase inhibitory activity.

Experiment [4] concerns the target T2, Ras farnesyl transferase. Briefly: in vivo (cellular) Ras farnesyl transferase inhibitory activity, Rat2 cells transformed with H-Ras fused with polybasic lysine domain of K-Ras. It is filed as cell-based. The procedure: as §3, §4
Setting [5] is: recombinant Ras farnesyl transferase, H-Ras substrate, tritium-farnesylpyrophosphate, 30 minutes at 37° C., read-out: H-Ras IC50.
The mark [6] stands for this setting: recombinant Ras farnesyl transferase, K-Ras substrate, read-out: K-Ras IC50.
Setting [7] is: Rat2 cell line expressing C-Harvey-Ras, concentration inhibiting 50% of farnesyl binding of Ras protein, read-out: H-Ras CIC50.
Where [8] appears, read: Rat2 cell line transformed with H-Ras substituted with polybasic lysine domain at C-terminus of K-Ras, concentration inhibiting 50% of farnesyl binding, read-out: K-Ras CIC50.

Turning to `COCCN(C)C(=O)c1cn(Cc2cncn2CC2CCN(C(=O)N(C)Cc3ccccc3)CC2)cc1-c1cccc2ccccc12` [Compound 30], the pIC50 in experiment [1] (setting [5]) was 8.60; in experiment [2] (setting [6]) it was 8.22; in experiment [3] (setting [7]) it was 7.00 to 8.00; in experiment [4] (setting [8]), 5.00 to 6.00.
Turning to `COCCN(C)C(=O)c1cn(Cc2cncn2CC2CCN(C(=O)N3CCCc4ccccc43)CC2)cc1-c1cccc2ccccc12` [Compound 31, 3-[N-(2-Methoxyethyl)-N-methyl]carbamoyl-4-(naphthalen-1-yl)-1-{1-[1-(1,2,3,4-tetrahydroquinolin-1-ylcarbonyl)piperidin-4-ylmethyl]-1H-imidazol-5-ylmethyl}-1H-pyrrole], the pIC50 in experiment [1] (setting [5]) was 8.40; in experiment [2] (setting [6]), 7.70; in experiment [3] (setting [7]) it was 7.00 to 8.00; in experiment [4] (setting [8]) it was 4.30 to 5.00.
As for `COCCN(C)C(=O)c1cn(Cc2cncn2CC2CCN(C(=O)N3CCc4ccccc4C3)CC2)cc1-c1cccc2ccccc12` [Compound 32, 3-[N-(2-Methoxyethyl)N-methyl]carbamoyl-4-(naphthalen-1-yl)-1-{1-[1-(1,2,3,4-tetrahydroisoquinolin-2-ylcarbonyl)piperidin-4-ylmethyl]-1H-imidazol-5-ylmethyl}-1H-pyrrole], the pIC50 in experiment [1] (setting [5]) is 8.70; in experiment [2] (setting [6]) it was 7.92; in experiment [3] (setting [7]), 7.00 to 8.00; in experiment [4] (setting [8]), 5.00 to 6.00.
Regarding `COCCN(C)C(=O)c1cn(Cc2cncn2CC2CCN(Cc3ccc(-c4ccccc4)cc3)CC2)cc1-c1cccc2ccccc12` [Compound 33], the pIC50 in experiment [1] (setting [5]) is 8.30; in experiment [2] (setting [6]), 7.00 to 8.00; in experiment [3] (setting [7]), 7.00 to 8.00; in experiment [4] (setting [8]), 5.00 to 6.00.
Consider `COCCN(C)C(=O)c1cn(Cc2cncn2CC2CCN(Cc3ccc(Oc4ccccc4)cc3)CC2)cc1-c1cccc2ccccc12` [Compound 34, 3-[N-(2-Methoxyethyl)-N-methyl]carbamoyl-4-(naphthalen-1-yl)-1-{1-[1-(4-phenoxybenzyl)piperidin-4-ylmethyl]-1H-imidazol-5-ylmethyl}-1H-pyrrole], for which the pIC50 was 7.96 in experiment [1] (setting [5]), 7.00 to 8.00 in experiment [2] (setting [6]), 7.00 to 8.00 in experiment [3] (setting [7]) and 5.00 to 6.00 in experiment [4] (setting [8]).
As for `COCCN(C)C(=O)c1cn(Cc2cncn2CC2CCN(C(=O)OCC(C)C)CC2)cc1-c1cccc2ccccc12` [Compound 35, 1-[1-(1-Isobutoxycarbonyl-piperidin-4-ylmethyl)-1H-imidazol-5-ylmethyl]-3-[N-(2-methoxyethyl)-N-methyl]carbamoyl-4-(naphthalen-1-yl)-1H-pyrrole], the pIC50 was 8.22 in experiment [1] (setting [5]), 7.00 to 8.00 in experiment [2] (setting [6]), 7.00 to 8.00 in experiment [3] (setting [7]) and 5.00 to 6.00 in experiment [4] (setting [8]).
Turning to `O=C(c1ccn(Cc2cncn2CC2CCN(C(=O)OCc3ccccc3)CC2)c1)c1cccc2ccccc12` [Compound 36, 1-{1-[1-(Benzyloxycarbonyl)piperidin-4-yl]methyl-1H-imidazol-5-yl}methyl-3-(naphthalen-1-yl)carbonyl-1H-pyrrole], the pIC50 was 6.70 in experiment [1], less than 4.00 in experiment [2], 5.00 in experiment [3] and 4.30 in experiment [4].
As to `CC(=O)N1CCC(Cn2cncc2Cn2ccc(C(=O)c3cccc4ccccc34)c2)CC1` [Compound 37, 1-[1-(1-Acetylpiperidin-4-yl)methyl-1H-imidazol-5-yl]methyl-3-(naphthalen-1-yl)carbonyl-1H-pyrrole], the pIC50 in experiment [1] is 6.46; in experiment [2], 4.00 to 5.00; in experiment [3] it was 5.00 to 6.00; in experiment [4], 4.30 to 5.00.
In the case of `CN1CCN(C(=O)c2cn(Cc3cncn3CC3CCN(C(=O)OCc4ccccc4)CC3)cc2-c2cccc3ccccc23)CC1` [Compound 38, 1-[1-(1-Benzyloxycarbonylpiperidin-4-yl)methyl-1H-imidazol-5-yl]methyl-3-(4-methylpiperazin-1-yl)carbonyl-4-(naphthalen-1-yl)-1H-pyrrole], the pIC50 in experiment [1] (setting [5]) was 8.42; in experiment [2] (setting [6]), 7.82; in experiment [3] (setting [7]), 7.90; in experiment [4] (setting [8]), 5.60.
On to `CN(C)CCN(C)C(=O)c1cn(Cc2cncn2CC2CCN(C(=O)OCc3ccccc3)CC2)cc1-c1cccc2ccccc12` [Compound 39, 1-[1-(-Benzyloxycarbonylpiperidin-4-yl)methyl-1H-imidazol-5-yl]methyl-3-{N-[2-(N,N-dimethylamino)ethyl]-N-methyl}carbamoyl-4-(naphthalen-1-yl)-1H-pyrrole], for which the pIC50 is 6.52 in experiment [1] (setting [5]), 5.82 in experiment [2] (setting [6]), 6.00 in experiment [3] (setting [7]) and 4.00 to 4.52 in experiment [4] (setting [8]).
As to `COC(=O)N1CCC(Cn2cncc2Cn2cc(C(=O)N3CCN(C)CC3)c(-c3cccc4ccccc34)c2)CC1` [Compound 40, 1-[1-(1-Methoxycarbonylpiperidin-4-yl)methyl-1H-imidazol-5-yl]methyl-3-(4-methylpiperazin-1-yl)carbonyl-4-(naphthalen-1-yl)1H-pyrrole], the pIC50 is 8.80 in experiment [1] (setting [5]), 8.38 in experiment [2] (setting [6]), 7.52 in experiment [3] (setting [7]) and 4.30 to 5.00 in experiment [4] (setting [8]).
Taken in the same sequence, the figures for `CN1CCN(C(=O)c2cn(Cc3cncn3CC3CCN(S(C)(=O)=O)CC3)cc2-c2cccc3ccccc23)CC1` [Compound 41, 3-(4-Methylpiperazin-1-yl)carbonyl-1-[1-(1-methylsulfonylpiperidin-4-yl)methyl-1H-imidazol-5-yl]methyl-4-(naphthalen-1-yl)-1H-pyrrole] were 8.52, 8.00, 7.30 and 4.30 to 5.00.
Taken in the same sequence, the figures for `CC(=O)N1CCC(Cn2cncc2Cn2cc(C(=O)N3CCN(C)CC3)c(-c3cccc4ccccc34)c2)CC1` [Compound 42, 1-[1-(1-Acetylpiperidin-4-yl)methyl-1H-imidazol-5-yl]methyl-3-(4-methylpiperazin-1-yl)carbonyl-4-(naphthalen-1-yl)-1H-pyrrole] were 8.92, 8.22, 7.60 and 4.30 to 5.00.
